Reference: patent US20240124432A1, “HERBICIDAL COMPOUNDS” (SYNGENTA CROP PROTECTION AG, priority 2020, published 2024)

Tests used:
Type in all cases: in vivo
ELEIN = assay: Post-emergence biological efficacy; conditions: 312 h, evaluated after 13 days, read-out: damage to plant (100=total damage to plant; 0=no damage to plant)
Summary of the method: (§1)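 Damage was rated 13 days after treatment, from 0 (none) to 100 (total). Test compounds, formulated in IF50 and diluted with 0.2% Genapol XO80 to final dose, were sprayed on glasshouse plants raised for 14 days from seed.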

SETFA [1] = assay: Post-emergence biological efficacy; conditions: Setaria faberi, 312 h, evaluated after 13 days, read-out: damage to plant (100=total damage to plant; 0=no damage to plant)
Summary of the method: as §1

IPOHE [2] = assay: Post-emergence biological efficacy; conditions: Ipomoea hederacea, 312 h, evaluated after 13 days, read-out: damage to plant (100=total damage to plant; 0=no damage to plant)
Summary of the method: as §1

CHEAL = assay: Post-emergence biological efficacy; conditions: Chenopodium album, 312 h, evaluated after 13 days, read-out: damage to plant (100=total damage to plant; 0=no damage to plant)
Summary of the method: as §1

LOLPE [3] = assay: Post-emergence biological efficacy; conditions: Lolium perenne, 312 h, evaluated after 13 days, read-out: damage to plant (100=total damage to plant; 0=no damage to plant)
Summary of the method: as §1

EPHHL [4] = assay: Post-emergence biological efficacy; conditions: Euphorbia heterophylla, 312 h, evaluated after 13 days, read-out: damage to plant (100=total damage to plant; 0=no damage to plant)
Summary of the method: as §1

AMAPA [5] = assay: Post-emergence biological efficacy; conditions: Amaranthus palmeri, 312 h, evaluated after 13 days, read-out: damage to plant (100=total damage to plant; 0=no damage to plant)
Summary of the method: as §1

ECHCG [6] = assay: Post-emergence biological efficacy; conditions: Echinochloa crus-galli, 312 h, evaluated after 13 days, read-out: damage to plant (100=total damage to plant; 0=no damage to plant)
Summary of the method: as §1

DIGSA = assay: Post-emergence biological efficacy; conditions: Digitaria sanguinalis, 312 h, evaluated after 13 days, read-out: damage to plant (100=total damage to plant; 0=no damage to plant)
Summary of the method: as §1

SETFA [7] = assay: Pre-emergence biological efficacy; conditions: Setaria faberi, 312 h, evaluated after 13 days, read-out: damage to plant (100=total damage to plant; 0=no damage to plant)
Summary of the method: (§2)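 Damage rated on a 0–100 scale (100 = total) 13 days after spraying in glasshouse conditions of 24/18° C., 15 h light, 50% humidity. Spray applied one day after sowing, using aqueous dilution in 0.2% Genapol XO80 of a 50 g/l IF50 solvent-emulsifier formulation, at the desired final dose.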

IPOHE [8] = assay: Pre-emergence biological efficacy; conditions: Ipomoea hederacea, 312 h, evaluated after 13 days, read-out: damage to plant (100=total damage to plant; 0=no damage to plant)
Summary of the method: as §2

LOLPE [9] = assay: Pre-emergence biological efficacy; conditions: Lolium perenne, 312 h, evaluated after 13 days, read-out: damage to plant (100=total damage to plant; 0=no damage to plant)
Summary of the method: as §2

EPHHL [10] = assay: Pre-emergence biological efficacy; conditions: Euphorbia heterophylla, 312 h, evaluated after 13 days, read-out: damage to plant (100=total damage to plant; 0=no damage to plant)
Summary of the method: as §2

AMAPA [11] = assay: Pre-emergence biological efficacy; conditions: Amaranthus palmeri, 312 h, evaluated after 13 days, read-out: damage to plant (100=total damage to plant; 0=no damage to plant)
Summary of the method: as §2

ECHCG [12] = assay: Pre-emergence biological efficacy; conditions: Echinochloa crus-galli, 312 h, evaluated after 13 days, read-out: damage to plant (100=total damage to plant; 0=no damage to plant)
Summary of the method: as §2

Row | SMILES | pest or weed control at 250 g/ha (ELEIN) | pest or weed control at 250 g/ha (SETFA [1]) | pest or weed control at 250 g/ha (IPOHE [2]) | pest or weed control at 250 g/ha (CHEAL) | pest or weed control at 250 g/ha (LOLPE [3]) | pest or weed control at 250 g/ha (EPHHL [4]) | pest or weed control at 250 g/ha (AMAPA [5]) | pest or weed control at 250 g/ha (ECHCG [6]) | pest or weed control at 250 g/ha (DIGSA) | pest or weed control at 250 g/ha (SETFA [7]) | pest or weed control at 250 g/ha (IPOHE [8]) | pest or weed control at 250 g/ha (LOLPE [9]) | pest or weed control at 250 g/ha (EPHHL [10]) | pest or weed control at 250 g/ha (AMAPA [11]) | pest or weed control at 250 g/ha (ECHCG [12])
1 | CCOC(=O)C1(C)CC(c2cc(-c3ncc(C(F)(F)F)cc3Br)c(F)cc2Cl)=NO1 (stereo not drawn) [Compound 1-571, Ethyl 3-[5-[3-bromo-5-(trifluoromethyl)-2-pyridyl]-2-chloro-4-fluoro-phenyl]-5-methyl-4H-isoxazole-5-carboxylate] | 90% | 90% | 70% | 100% | 90% | 100% | 100% | 30% | 60% | 10% | 0% | 70% | 0% | 100% | 10%
2 | CCOC(=O)C1(C)CC(c2cc(-c3ncc(C(F)F)cc3Cl)c(F)cc2Cl)=NO1 (stereo not drawn) [Compound 1-583, Ethyl 3-[2-chloro-5-[3-chloro-5-(difluoromethyl)-2-pyridyl]-4-fluoro-phenyl]-5-methyl-4H-isoxazole-5-carboxylate] | 90% | 100% | 100% | 100% | 100% | 100% | 100% | 100% | 90% | 90% | 60% | 60% | 100% | 100% | 90%
3 | CCOC(=O)C1(C)CC(c2cc(-c3ncc(C(C)(F)F)cc3Cl)c(F)cc2Cl)=NO1 (stereo not drawn) [Compound 1-595, ethyl 3-[2-chloro-5-[3-chloro-5-(1,1-difluoroethyl)-2-pyridyl]-4-fluoro-phenyl]-5-methyl-4H-isoxazole-5-carboxylate] | 100% | 100% | 100% | 100% | 100% | 100% | 100% | 100% | 100% | 100% | 80% | 90% | 100% | 100% | 100%
4 | CCOC(=O)C1(C)CC(c2cc(-c3ncc(C#N)cc3Cl)c(F)cc2Cl)=NO1 (stereo not drawn) [Compound 1-607, Ethyl 3-[2-chloro-5-(3-chloro-5-cyano-2-pyridyl)-4-fluoro-phenyl]-5-methyl-4H-isoxazole-5-carboxylate] | 60% | 80% | 100% | 100% | 70% | 100% | 100% | 40% | 70% | 10% | 30% | 20% | 50% | 100% | 70%
5 | CCOC(=O)C1(C)CC(c2cc(-c3ncc(C(C)=O)cc3Cl)c(F)cc2Cl)=NO1 (stereo not drawn) [Compound 1-631, Ethyl 3-[5-(5-acetyl-3-chloro-2-pyridyl)-2-chloro-4-fluoro-phenyl]-5-methyl-4H-isoxazole-5-carboxylate] | 10% | 10% | 40% | 20% | 0% | 20% | 10% | 40% | 30% | 0% | 0% | 0% | 0% | 0% | 0%
6 | CCOC(=O)C1(C)CC(c2cc(-c3ncc(S(C)(=O)=O)cc3Cl)c(F)cc2Cl)=NO1 (stereo not drawn) [Compound 1-643, Ethyl 3-[2-chloro-5-(3-chloro-5-methylsulfonyl-2-pyridyl)-4-fluoro-phenyl]-5-methyl-4H-isoxazole-5-carboxylate] | 100% | 100% | 100% | 100% | 100% | 100% | 100% | 100% | 100% | 100% | 100% | 100% | 100% | 100% | 100%
7 | CCOC(=O)C1(C)CC(c2cc(-c3ccc(C(F)(F)F)nc3Cl)c(F)cc2Cl)=NO1 (stereo not drawn) [Compound 1-655, Ethyl 3-[2-chloro-5-[2-chloro-6-(trifluoromethyl)-3-pyridyl]-4-fluoro-phenyl]-5-methyl-4H-isoxazole-5-carboxylate] | 80% | 90% | 100% | 100% | 80% | 100% | 100% | 90% | 70% | 30% | 40% | 40% | 90% | 100% | 40%
8 | CCOC(=O)C1(C)CC(c2cc(-c3c(Cl)cc(C(F)(F)F)c[n+]3[O-])ccc2Cl)=NO1 (stereo not drawn) [Compound 1-663, Ethyl 3-[2-chloro-5-(3-chloro-1-oxido-5-trifluoromethyl-2-pyridyl)-phenyl]-5-methyl-4H-isoxazole-5-carboxylate] | 100% | 100% | 100% | 100% | 100% | 100% | 100% | 100% | 100% | 40% | 90% | 50% | 90% | 100% | 30%
9 | CCOC(=O)C1(C)CC(c2cc(-c3c(Cl)cc(C(F)(F)F)c[n+]3[O-])c(F)cc2Cl)=NO1 (stereo not drawn) [Compound 1-667, Ethyl 3-[2-chloro-5-(3-chloro-1-oxido-5-trifluoromethyl-2-pyridyl)-4-fluoro-phenyl]-5-methyl-4H-isoxazole-5-carboxylate] | 100% | 100% | 100% | 100% | 100% | 100% | 100% | 100% | 100% | 100% | 100% | 100% | 100% | 100% | 100%
10 | CCOC(=O)C1(C)CC(c2cc(-c3ccc(Cl)nn3)c(F)cc2Cl)=NO1 (stereo not drawn) [Compound 1-679, Ethyl 3-[2-chloro-5-(6-chloropyridazin-3-yl)-4-fluoro-phenyl]-5-methyl-4H-isoxazole-5-carboxylate] | 60% | 50% | 40% | 60% | 10% | 50% | 60% | 50% | 50% | 0% | 0% | 0% | 0% | 0% | 0%
